According to US10208071B2, “Use of agonists of formyl peptide receptor 2 for treating ocular inflammatory diseases” (Allergan, Inc., priority 2013, dated 2019):

Target: FPR2 (Homo sapiens (Human), UniProt P25090)
Assay: FLIPR Ca+2 response, HEK-Gα16 cells stably expressing the human FPR2 receptor (Table 4)
Format: cell-based
Conditions: for FPR2 (efficacy): efficacy in parentheses
Description: FLIPR: HEK-Gα16 cells stably expressing the human FPR2 receptor was utilized. Cells were plated into 384-well poly-D-lysine coated plates at a density of 18,000 cells per well one day prior to use. The growth media was DMEM medium supplemented with 10% fetal bovine serum (FBS), 1% antibiotic-antimycotic, 50 μg/ml hygromycin, and 400 μg/ml geneticin. On the day of the experiment, the cells were washed twice with Hank's Balanced Salt Solution supplemented with 20 mM HEPES (HBSS/hepes buffer). The cells were then dye loaded with 2 μM Fluo-4 diluted in the HBSS/Hepes buffer and incubated at 37° C. for 40 minutes. Extracellular dye was removed by washing the cell plates four times prior to placing the plates in the FLIPR (Fluorometric Imaging Plate Reader, Molecular Devices). Ligands were diluted in HBSS/Hepes buffer and prepared in 384-well microplates. Data for Ca^+2 responses were obtained in relative fluorescence units.

Chain of FPR2 (P25090 whole entry): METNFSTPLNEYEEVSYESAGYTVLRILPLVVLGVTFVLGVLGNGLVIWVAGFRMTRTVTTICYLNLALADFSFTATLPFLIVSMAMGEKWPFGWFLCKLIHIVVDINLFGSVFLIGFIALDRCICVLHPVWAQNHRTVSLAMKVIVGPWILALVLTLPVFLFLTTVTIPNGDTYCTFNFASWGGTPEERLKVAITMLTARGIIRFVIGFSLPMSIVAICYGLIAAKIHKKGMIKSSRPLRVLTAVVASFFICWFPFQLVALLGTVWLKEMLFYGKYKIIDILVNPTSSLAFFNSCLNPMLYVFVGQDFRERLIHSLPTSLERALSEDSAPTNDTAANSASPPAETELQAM

| FPR2 (efficacy) | EC50 | Structure (SMILES) |
| --- | --- | --- |
| nM (0.76) | 13.5 nM | CC(C)C[C@H](NC(=O)Nc1ccc(Br)cc1)C(=O)NCCO [Compound 75, (2S)-2-{[(4-bromophenyl)carbamoyl]amino}-N-(2-hydroxyethyl)-4-methylpentanamide] |
| nM (0.99) | 5.2 nM | CC1(CCc2ccco2)NC(=O)N(NC(=O)Nc2ccc(Br)cc2)C1=O (stereo not drawn) [Compound 76, 1-(4-bromophenyl)-3-{4-[2-(furan-2-yl)ethyl]-4-methyl-2,5-dioxoimidazolidin-1-yl}urea] |
| nM (1.0) | 1.1 nM | CC(C)C[C@H](NC(=O)Nc1ccc(Br)cc1)C(=O)NCC(N)=O [Compound 77, (2S)-N-(2-amino-2-oxoethyl)-2-{[(4-bromophenyl)carbamoyl]amino}-4-methylpentanamide] |
| nM (0.82) | – | CC(=O)CNC(=O)[C@H](CC(C)C)NC(=O)Nc1ccc(Br)cc1 [Compound 78, (2S)-2-{[(4-bromophenyl)carbamoyl]amino}-4-methyl-N-(2-oxopropyl)pentanamide] |
| nM (0.97) | – | CCC[C@H](NC(=O)Nc1ccc(Br)cc1)C(=O)NCC(N)=O [Compound 79, (2S)-N-(2-amino-2-oxoethyl)-2-{[(4-bromophenyl)carbamoyl]amino} pentanamide] |
| nM (99) | 14.3 nM | CC1(CCc2ccccc2F)NC(=O)N(NC(=O)Nc2ccc(Br)cc2)C1=O (stereo not drawn) [Compound 80, 1-(4-bromophenyl)-3-{4-[2-(2-fluorophenyl)ethyl]-4-methyl-2,5-dioxoimidazolidin-1-yl}urea] |
| nM (0.96) | – | CCC[C@H](NC(=O)Nc1ccc(Br)cc1F)C(=O)NCC(N)=O [Compound 81, (2S)-N-(2-amino-2-oxoethyl)-2-{[(4-bromo-2-fluorophenyl)carbamoyl]amino} pentanamide] |
| nM (1.0) | 16.3 nM | CC1(CCc2ccc(F)cc2)NC(=O)N(NC(=O)Nc2ccc(Br)cc2)C1=O (stereo not drawn) [Compound 82, 1-(4-bromophenyl)-3-{4-[2-(4-fluorophenyl)ethyl]-4-methyl-2,5-dioxoimidazolidin-1-yl}urea] |
| nM (1.0) | – | CC1(CCc2cccc(F)c2)NC(=O)N(NC(=O)Nc2ccc(Br)cc2)C1=O (stereo not drawn) [Compound 83, 1-(4-bromophenyl)-3-{4-[2-(3-fluorophenyl)ethyl]-4-methyl-2,5-dioxoimidazolidin-1-yl}urea] |
| nM (0.95) | 4.5 nM | CC(C)C[C@H](NC(=O)Nc1ccc(Br)cc1F)C(=O)NCC(N)=O [Compound 84, (2S)-N-(2-amino-2-oxoethyl)-2-{[(4-bromo-2-fluorophenyl)carbamoyl]amino}-4-methylpentanamide] |
| nM (0.99) | – | CC(=O)CNC(=O)[C@H](CC(C)C)NC(=O)Nc1ccc(Br)cc1F [Compound 85, (2S)-2-{[(4-bromo-2-fluorophenyl)carbamoyl]amino}-4-methyl-N-(2-oxopropyl)pentanamide] |
| nM (0.95) | 12.1 nM | CC(C)C[C@H](NC(=O)Nc1ccc(Br)cc1F)C(=O)N[C@@H](C)C(=O)O [Compound 87, (2S)-2-{[(2S)-2-{[(4-bromo-2-fluorophenyl)carbamoyl]amino}-4-methylpentanoyl]amino} propanoic acid] |
| nM (0.94) | – | CC1(CCc2cccs2)NC(=O)N(NC(=O)Nc2ccc(Br)cc2)C1=O (stereo not drawn) [Compound 88, 1-(4-bromophenyl)-3-{4-methyl-2,5-dioxo-4-[2-(thiophen-2-yl)ethyl]imidazolidin-1-yl}urea] |
| nM (0.85) | – | CC1(CCc2ccc(O)cc2)NC(=O)N(NC(=O)Nc2ccc(Br)cc2F)C1=O (stereo not drawn) [Compound 89, 1-(4-bromo-2-fluorophenyl)-3-{4-[2-(4-hydroxyphenyl)ethyl]-4-methyl-2,5-dioxoimidazolidin-1-yl}urea] |
| nM (1.0) | 11.6 nM | CC(C)C[C@H](NC(=O)Nc1ccc(Br)cc1)C(=O)N[C@@H](C)C(=O)O [Compound 90, (2S)-2-{[(2S)-2-{[(4-bromophenyl)carbamoyl]amino}-4-methylpentanoyl]amino} propanoic acid] |
| nM (0.97) | 1.7 nM | CC(C)C[C@H](NC(=O)Nc1ccc(Br)cc1)C(=O)N[C@H](C(=O)O)C(C)C [Compound 91, (2S)-2-{[(2S)-2-{[(4-bromophenyl)carbamoyl]amino}-4-methylpentanoyl]amino}-3-methylbutanoic acid] |

The remaining lines, values behind:

| Structure (SMILES) | FPR2 (efficacy) | EC50 |
| --- | --- | --- |
| O=C(O)CNC(=O)[C@H](Cc1ccccc1)NC(=O)Nc1ccc(Br)cc1 [Compound 55, {[(2S)-2-{[(4-bromophenyl)carbamoyl]amino}-3-phenylpropanoyl]amino}acetic acid] | nM (0.99) | – |
| O=C(O)CCNC(=O)[C@H](Cc1ccccc1)NC(=O)Nc1ccc(Br)cc1 [Compound 56, 3-{[(2S)-2-{[(4-bromophenyl)carbamoyl]amino}-3-phenylpropanoyl]amino} propanoic acid] | nM (0.98) | – |
| O=C(Nc1ccc(Br)cc1)N[C@@H](Cc1ccccc1)C(=O)NCCO [Compound 58, (2S)-2-{[(4-bromophenyl)carbamoyl]amino}-N-(2-hydroxyethyl)-3-phenylpropanamide] | nM (0.86) | 7 nM |
| CC[C@H](C)[C@H](NC(=O)Nc1ccc(Br)cc1F)C(=O)NCC(=O)O [Compound 59, {[(2S,3S)-2-{[(4-bromo-2-fluorophenyl)carbamoyl]amino}-3-methylpentanoyl]amino}acetic acid] | nM (0.95) | – |
| CC[C@H](C)[C@H](NC(=O)Nc1ccc(Br)cc1)C(=O)NCC(N)=O [Compound 60, (2S,3S)-N-(2-amino-2-oxoethyl)-2-{[(4-bromophenyl)carbamoyl]amino}-3-methylpentanamide] | nM (0.91) | – |
| CCC1(C(C)C)NC(=O)N(NC(=O)Nc2ccc(Br)cc2F)C1=O (stereo not drawn) [Compound 61, 1-(4-bromo-2-fluorophenyl)-3-[4-2,5-dioxo-4-(propan-2-yl)imidazolidin-1-yl]urea] | nM (0.97) | 9.2 nM |
| CC[C@H](C)[C@H](NC(=O)Nc1ccc(Br)cc1F)C(=O)NCC(N)=O [Compound 62, (2S,3S)-N-(2-amino-2-oxoethyl)-2-{[(4-bromo-2-fluorophenyl)carbamoyl]amino}-3-methylpentanamide] | nM (1.0) | 10.3 nM |
| CC[C@H](C)[C@H](NC(=O)Nc1ccc(Br)cc1)C(=O)NCC(C)=O [Compound 63] | nM (0.97) | 10.5 nM |
| CC(C)C1(C(C)C)NC(=O)N(NC(=O)Nc2ccc(Br)cc2)C1=O [Compound 64, 1-(4-bromophenyl)-3-[2,5-dioxo-4,4-di(propan-2-yl)imidazolidin-1-yl]urea] | nM (1.0) | 3.8 nM |
| O=C(Nc1ccc(Br)cc1)NN1C(=O)NC(C2CC2)(C2CC2)C1=O [Compound 65, 1-(4-bromophenyl)-3-(4,4-dicyclopropyl-2,5-dioxoimidazolidin-1-yl)urea] | nM (1.0) | – |
| CC(=O)CNC(=O)[C@H](Cc1ccccc1)NC(=O)Nc1ccc(Br)cc1F [Compound 68, (2S)-2-{[(4-bromo-2-fluorophenyl)carbamoyl]amino}-N-(2-oxopropyl)-3-phenylpropanamide] | nM (0.94) | 12.4 nM |
| CCC1(CCc2ccccc2)NC(=O)N(NC(=O)Nc2ccc(Br)cc2F)C1=O (stereo not drawn) [Compound 69, 1-(4-bromo-2-fluorophenyl)-3-[4-ethyl-2,5-dioxo-4-(2-phenylethyl)imidazolidin-1-yl]urea] | nM (0.91) | 13.4 nM |
| CCC[C@H](NC(=O)Nc1ccc(Br)cc1)C(=O)O [Compound 70, (2S)-2-{[(4-bromophenyl)carbamoyl]amino} pentanoic acid] | nM (1.0) | 7.1 nM |
| O=C(Nc1ccc(Br)cc1F)N[C@@H](Cc1ccccc1)C(=O)NCCO [Compound 71, (2S)-2-{[(4-bromo-2-fluorophenyl)carbamoyl]amino}-N-(2-hydroxyethyl)-3-phenylpropanamide] | nM (0.98) | 15.6 nM |
| CCC[C@H](NC(=O)Nc1ccc(Br)cc1)C(=O)NCC(=O)OC [Compound 72, methyl{[(2S)-2-{[(4-bromophenyl)carbamoyl]amino}pentanoyl]amino}acetate] | nM (0.86) | 16.4 nM |
| CCC[C@H](NC(=O)Nc1ccc(Br)cc1)C(=O)NCC(=O)OC(C)C [Compound 73, propan-2-yl {[(2S)-2-{[(4-bromophenyl)carbamoyl]amino}pentanoyl]amino}acetate] | nM (1.0) | 14.5 nM |
| CCC[C@H](NC(=O)Nc1ccc(Br)cc1F)C(=O)NCC(=O)O [Compound 74, {[(2S)-2-+{[(4-bromo-2-fluorophenyl)carbamoyl]amino}pentanoyl]amino}acetic acid] | nM (0.91) | 4.1 nM |
